The values that follow come from PubChem BioAssay (NCI).

“And” between values parts separate entries of the source, which are not always exact repeats. Identical values can stand only once.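 Five compound concentrations were applied to cells in 96-well plates for 48 hours; endpoints were derived by simple linear interpolation of the resulting dose-response curve. Here, GI50 denotes the concentration required for 50% inhibition of growth. TGI marks complete inhibition of growth.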 Where only a bound is given, the exact number is not on record here.

Test systems include PC-3 prostate; SK-MEL-2 melanoma; OVCAR-5 ovarian; K-562 leukemia; KM12 colon; NCI-H522 lung; MDA-MB-231 breast; A498 renal; NCI-H226 lung; HCC-2998 colon.
Common to all, as to experiment: growth of human tumour cells (NCI), 48 h

As to `CC1(C)O[C@H]2OC3CCC(=O)CC3(O)[C@H]2O1` (stereo partly drawn), the TGI with PC-3 prostate, in the assay on SK-MEL-2 melanoma, in the assay with OVCAR-5 ovarian, with K-562 leukemia, with KM12 colon and in the assay with NCI-H522 lung was above 100 µM in each case. Besides, the TGI in the assay with MDA-MB-231 breast, in the assay on A498 renal, in the assay on NCI-H226 lung and with HCC-2998 colon was above 100 µM throughout.
For `COc1ccc(Cl)cc1Nc1nc(C(F)(F)F)ccc1C(=O)NN`, the GI50 with PC-3 prostate was 2.84 µM; in the assay with SK-MEL-2 melanoma, 2.7 µM; with OVCAR-5 ovarian, 3.81 µM; in the assay with K-562 leukemia, 3.35 µM; with KM12 colon it was 9.08 µM; in the assay on NCI-H522 lung, 4.09 µM. Besides, the values for the GI50 in the assay on MDA-MB-231 breast, in the assay with A498 renal and in the assay with NCI-H226 lung were 4.58 µM, 1.51 µM and 3.62 µM, respectively. Moreover, the TGI in the assay on PC-3 prostate, with SK-MEL-2 melanoma, with OVCAR-5 ovarian, in the assay on K-562 leukemia, in the assay with KM12 colon and with NCI-H522 lung was above 100 µM in each case. Further, the TGI in the assay on MDA-MB-231 breast is above 100 µM; in the assay on A498 renal, 63 µM; in the assay on NCI-H226 lung, above 100 µM; in the assay with HCC-2998 colon, 9.82 µM.
For the molecule `CC[C@H](C)[C@H](NC(=O)c1cnccn1)C(=O)N(C)[C@H](C[C@@H](OC(C)=O)c1nc(C(=O)N[C@@H](Cc2ccccc2)C[C@H](C)C(=O)OC)cs1)C(C)C`, the GI50 in the assay on PC-3 prostate is 1.36 µM; in the assay with SK-MEL-2 melanoma, 0.827 µM; with OVCAR-5 ovarian it was 3.71 µM; in the assay on K-562 leukemia it was 0.662 µM; in the assay with KM12 colon it was 0.107 µM; with NCI-H522 lung, 0.0552 µM. The GI50 in the assay on MDA-MB-231 breast is 1.39 µM; in the assay with A498 renal, 0.907 µM; in the assay on NCI-H226 lung, 4.74 µM; with HCC-2998 colon it was 1.35 µM. The TGI in the assay on PC-3 prostate was above 33.3 µM; with SK-MEL-2 melanoma, above 33.3 µM; with OVCAR-5 ovarian, above 33.3 µM; in the assay with K-562 leukemia it was above 33.3 µM; in the assay with KM12 colon, above 33.3 µM; in the assay on NCI-H522 lung it was 2.49 µM. Besides, the TGI was 19.6 µM in the assay with MDA-MB-231 breast, 3.15 µM in the assay on A498 renal, above 33.3 µM in the assay on NCI-H226 lung and above 33.3 µM in the assay with HCC-2998 colon.
In the case of `CC(=O)c1cccc(N(/C=C/C(=O)C(F)(F)F)CC(=O)c2ccc(Cl)cc2)c1`, the GI50 in the assay with PC-3 prostate, in the assay with SK-MEL-2 melanoma, with OVCAR-5 ovarian, in the assay with K-562 leukemia, with KM12 colon and in the assay with NCI-H522 lung was above 100 µM each time. The GI50 in the assay on MDA-MB-231 breast, in the assay on A498 renal, in the assay on NCI-H226 lung and in the assay with HCC-2998 colon was above 100 µM in each case. In addition, the TGI in the assay on PC-3 prostate, in the assay on SK-MEL-2 melanoma, with OVCAR-5 ovarian, with K-562 leukemia, in the assay with KM12 colon and in the assay on NCI-H522 lung was above 100 µM in each case. Also, the TGI in the assay on MDA-MB-231 breast, with A498 renal, in the assay on NCI-H226 lung and with HCC-2998 colon was above 100 µM each time.
With `CNC(=O)Nc1ccc(-c2nc(N3CCOCC3)nc3c2cnn3C2CCOCC2)cc1`, the GI50 in the assay with PC-3 prostate was 0.0809 µM; with SK-MEL-2 melanoma it was 0.382 µM; in the assay on OVCAR-5 ovarian, 0.194 µM; in the assay with K-562 leukemia, 0.533 µM; in the assay on KM12 colon, 0.384 µM; with NCI-H522 lung, 0.43 µM. Also, the GI50 in the assay on MDA-MB-231 breast was 0.292 µM; in the assay on A498 renal it was below 0.0218 µM; in the assay with NCI-H226 lung, 0.125 µM; with HCC-2998 colon it was 0.307 µM. Also, the TGI in the assay on PC-3 prostate was 7.49 µM; in the assay with SK-MEL-2 melanoma it was 3.56 µM; with OVCAR-5 ovarian, 1.36 µM; with K-562 leukemia it was above 100 µM; in the assay on KM12 colon, above 100 µM; in the assay on NCI-H522 lung, above 100 µM. Besides, the TGI was above 51.9 µM in the assay on MDA-MB-231 breast, 0.148 µM with A498 renal, 4.26 µM in the assay with NCI-H226 lung and above 100 µM in the assay with HCC-2998 colon.
In the case of `Cc1cc(N(CCNc2ccnc3cc(Cl)ccc23)Cc2ccc3c(c2)OCO3)nc(N2CCN(C)CC2)n1`, the GI50 was 4.59 µM in the assay with PC-3 prostate; 1.98 µM with SK-MEL-2 melanoma; 5.5 µM in the assay on OVCAR-5 ovarian; 1.16 µM in the assay on K-562 leukemia; 4.42 µM with KM12 colon; 1.85 µM in the assay on NCI-H522 lung. The GI50 in the assay on MDA-MB-231 breast was 1.77 µM; in the assay with A498 renal it was 2.43 µM; with NCI-H226 lung, 17.7 µM; in the assay on HCC-2998 colon it was 2.12 µM. In addition, the TGI in the assay with PC-3 prostate came to 17.7 µM; with SK-MEL-2 melanoma, 4.02 µM; in the assay with OVCAR-5 ovarian, 18.3 µM; with K-562 leukemia, 3.93 µM; with KM12 colon it was 17.7 µM; in the assay on NCI-H522 lung it was 3.81 µM. Further, the TGI stood at 4.32 µM in the assay on MDA-MB-231 breast, 8.85 µM in the assay on A498 renal, 36.8 µM in the assay with NCI-H226 lung and 4.88 µM with HCC-2998 colon.
For the molecule `Clc1ccc(COC(Cn2ccnc2)c2ccc(Cl)cc2Cl)cc1` (stereo not drawn), the GI50 with PC-3 prostate is 1.8 µM; in the assay with SK-MEL-2 melanoma, 2.32 µM; in the assay with OVCAR-5 ovarian, 4.24 µM; in the assay on K-562 leukemia it was 2.8 µM; with KM12 colon, 3.18 µM; in the assay with NCI-H522 lung, 0.282 µM. The GI50 in the assay with MDA-MB-231 breast is 1.04 µM; in the assay on A498 renal, 1.23 µM; with HCC-2998 colon, 2.72 µM. Also, the TGI in the assay with PC-3 prostate is 8.78 µM and 23.4 µM and 21.9 µM; in the assay with SK-MEL-2 melanoma, 5.08 µM and 28.9 µM and 28.8 µM; in the assay with OVCAR-5 ovarian it was 16.8 µM and 24.4 µM and 28.1 µM; in the assay on K-562 leukemia it was 10.2 µM and 23.9 µM and 21.1 µM; in the assay with KM12 colon it was 11 µM and 29.5 µM and 28.4 µM; in the assay on NCI-H522 lung, 2.43 µM and 18.5 µM and 22.8 µM. The TGI with MDA-MB-231 breast was 8.48 µM and 26.9 µM and 26 µM; in the assay on A498 renal, 8.22 µM and 27.8 µM and 24.2 µM; in the assay on NCI-H226 lung, 22.1 µM and 50 µM and 11.7 µM; with HCC-2998 colon, 10.5 µM and 29.6 µM and 30 µM.
`CC(C)n1c(/C=C/[C@@H](O)C[C@@H](O)CC(=O)O)c(-c2ccc(F)cc2)c2ccccc21`: the GI50 in the assay with PC-3 prostate is 0.371 µM and 0.65 µM; in the assay with SK-MEL-2 melanoma, 1.51 µM and 0.983 µM; in the assay on OVCAR-5 ovarian, 18.5 µM and 26.6 µM; with K-562 leukemia, 5.94 µM and 6.56 µM; in the assay on KM12 colon, 16.6 µM and 21.9 µM; with NCI-H522 lung, 0.995 µM and 0.999 µM. For the same molecule, the GI50 is 0.219 µM in the assay with MDA-MB-231 breast; 0.164 µM and 0.219 µM in the assay with A498 renal; 2.89 µM and 3.71 µM in the assay with NCI-H226 lung; 10.4 µM and 28.4 µM with HCC-2998 colon. Besides, the TGI with PC-3 prostate was above 100 µM; in the assay with SK-MEL-2 melanoma, 30.9 µM and 22.3 µM; with OVCAR-5 ovarian, above 100 µM; with K-562 leukemia it was above 100 µM; in the assay with KM12 colon, above 100 µM; in the assay on NCI-H522 lung, above 100 µM. In addition, the TGI with MDA-MB-231 breast was 0.535 µM; in the assay on A498 renal, 0.527 µM and 0.848 µM; in the assay with NCI-H226 lung, above 100 µM; with HCC-2998 colon it was above 100 µM.
